These results are taken from patent US20240415835A1, “COMPOSITIONS COMPRISING AN ERK INHIBITOR” (Otsuka Pharmaceutical Co., Ltd., priority 2021, published 2024).

In brackets after ≈: the same amount, converted by molar mass.

Data set [1] is described as follows: Primate study, 3-way crossover, oral administration. The settings on record: monkeys, oral 20 mg/kg, three dosing occasions. In kind it is in vivo. As for the experimental part:
A total of 6 animals were used in a 3-way (2+2+2) crossover design where, on each of the three dosing occasions, 2 of the animals were administered Compound I in powder in bottle (PiB) suspension in vehicle for reconstitution (20 mg/kg), 2 of the animals were administered Compound I solid dispersion suspension (20 mg/kg) of Example 1, while another 2 animals were administered Compound I in a tablet form (20 mg/kg) of Example 2. The vehicle for reconstitution comprised Propylene Glycol USP 80.0% w/w; Ethanol USP 10.0% w/w; Vit E TPGS USP 10.0% w/w for a total of 100.0% w/w.
Dosing for this study was conducted in fasted state. […]
The animals were observed closely during the first 12 hrs after each dosing and once daily on non-dosing days. Body weights were measured and recorded prior to dosing and blood samples for pharmacokinetic profiling were taken at the pre-defined time points for all animals. […] All plasma samples from this study were analyzed by this method and plasma concentration of Compound I were expressed in terms of ng/mL.
The error bars refer to standard deviation. […] AUClast refers to the area under the concentration-time curve from dosing (time 0) to the time of the last measured concentration (24 hours).

Data set [2] can be described thus: gastric to intestinal (G-IB) transfer microcentrifuge dissolution test. In kind it is physicochemical. As for the experimental part:
The solid dispersions described in Example 1 were evaluated in two non-sink dissolution tests to evaluate various aspects of the formulations and how they might be differentiated. The two dissolution tests that were evaluated include a gastric to intestinal (G-IB) transfer microcentrifuge dissolution test and an ultracentrifuge free-drug test.
The gastric-to-intestinal buffer (G-IB) transfer dissolution test is used to measure the supersaturation of drug above the solubility of bulk drug when dosed as a powder, first into media at a lower pH value to imitate a fasted stomach. After 30 minutes of exposure to the gastric media, the samples are transferred into the higher pH media as an imitation of the intestine. The drug concentrations measured in this test are a composite of free drug, drug in micelles, and drug suspended in solution as drug/polymer colloids.
The G-IB dissolution test is performed the same way, but with a 30 minute gastric exposure prior to transferring into the intestinal media. The intestinal media for the G-IB dissolution test is doubly concentrated in terms of buffering and bile salts, so that after the gastric transfer step, the final pH is 6.5 and SIF concentration is 0.5 wt %.
The microcentrifuge dissolution test separates the precipitate (undissolved drug) and total solubilized drug. Total solubilized drug consists of three solubilized species: freely solubilized drug, drug associated with bile salt micelles, and drug associated with polymer (drug-polymer colloids). These three species have different activities in vivo and differentiate formulations. The freely solubilized drug is the smallest species and is the most readily available for absorption. Freely solubilized drug can cross the unstirred mucous boundary layer and be absorbed into the blood through the epithelium. The drug associated with micelles diffuse across the unstirred mucous boundary layer and resupply free drug as it is absorbed. Finally, the drug-polymer colloids also resupply free drug as it is absorbed and can have a contribution to effective diffusion rate. These colloids can be important depending on the rate-limiting step for absorption.
A solid dispersion comprising Compound I: HPMCAS in a ratio of 1:2 (“33.3% HPMCAS”) was prepared from 2.7 grams of the free base hydrate crystalline form B of Compound I and 5.3 grams of HPMCAS (Shin Etsu, L grade, F particle size (≤10 microns particle size)), using a similar procedure of Example 1. Briefly, 2 mg test compound/mL in 0.9 mL gastric buffer was transferred to a final dose of 1 mg/mL in 1.8 mL of 0.5% SIF in PBS at pH 6.5 at room temperature to provide 1.8 mL total volume test solution. The samples were centrifuged at 15,800 g for 1 minute. At specified timepoint, 50 μL aliquot samples were diluted 6× with 50/50 acetonitrile/water and assayed by HPLC.
The solid dispersion was evaluated together with the 25% Compound I: HPMCAS solid dispersion (“25% HPMCAS”) and 95.3% Compound I (freebase hydrate, “Crystalline API”), using the G-IB dissolution test described in Example 3-1.

Data set [3] can be described thus: ultracentrifuge free-drug test (drug speciation). Format: physicochemical.
Protocol: The ultracentrifuge free-drug analysis is used to determine the species of dissolved drug that are present for each formulation. This test is performed at several timepoints, i.e., 0, 30, 60 and 90 minutes, during the microcentrifuge test, and it consists of a centrifugation step at 300,000 g that removes any colloidal species that are present, leaving only the free drug and drug in micelle species. In combination with the microcentrifuge data, this allows for determination of free drug and colloidal content at the timepoint where both are tested.
Setting [4] is: intestinal buffer, 0.5% SIF in PBS pH 6.5, 1 mg/mL.

`COc1cc(F)cc([C@@H](CO)NC(=O)[C@@H](C)N2Cc3ccc(-c4nc(NC5CCOCC5)ncc4Cl)cc3C2=O)c1` [Compound I, (2R)-2-(6-{5-chloro-2-[(tetrahydro-2H-pyran-4-yl)amino]pyrimidin-4-yl}-1-oxo-2,3-dihydro-1H-isoindol-2-yl)-N-[(S)-1-(3-fluoro-5-methoxyphenyl)-2-hydroxyethyl]propanamide]: the “clinical signs as a result of treatment” value in data set [1] is “no clinical signs”.

In the case of `COc1cc(F)cc([C@@H](CO)NC(=O)[C@@H](C)N2Cc3ccc(-c4nc(NC5CCOCC5)ncc4Cl)cc3C2=O)c1` [Crystalline API], the CmaxGB in data set [2] (gastric buffer, 2 mg/mL, room temperature) was found to be 20 µg/mL. Besides, the C1200 in data set [2] (intestinal buffer, 0.5% SIF in PBS pH 6.5) was found to be 21 µg/mL. Moreover, in data set [2] (setting [4]), the “AUC4-90 IB” value is recorded as 1,610 min*μg/mL, the “C90 IB” value amounted to 21 µg/mL and the “Cmax90 IB” value is 21 µg/mL. In data set [3] (ultracentrifuge), this compound gave a Ultra1200 of 19 µg/mL. The Ultra90 in data set [3] (ultracentrifuge, 90 minutes) is 21 µg/mL.

Regarding `COc1cc(F)cc([C@@H](CO)NC(=O)[C@@H](C)N2Cc3ccc(-c4nc(NC5CCOCC5)ncc4Cl)cc3C2=O)c1` [amorphous Compound I], the solubility in data set [3] (pH 6.5, fassgf or other biorelevant, FIG. 2 speciation data from the dissolution test) is around 15 µg/mL (≈ 25.7 µM).

As usually defined, the solubility is the dissolved amount per volume that the medium holds. The low end stands for a poorly soluble substance, the high end for a readily soluble substance.
